# In ChEMBL document CHEMBL1629672, “blaCTX-M genes in escherichia coli strains from Croatian Hospitals are located in new (blaCTX-M-3a) and widely spread (blaCTX-M-3a and blaCTX-M-15) genetic structures” (2009):
# Tested on: Escherichia coli
# Experiment: Antimicrobial activity against Escherichia coli isolate 32 harboring bla CTX-M-3a gene by broth microdilution method
# Type: functional
# Settings: not given
row,SMILES,MIC
1,CC(C)(O/N=C(\C(=O)N[C@@H]1C(=O)N2C(C(=O)[O-])=C(C[n+]3ccccc3)CS[C@H]12)c1csc(N)n1)C(=O)O [CEFTAZIDIME],4 µg/mL
2,C[C@@H](O)[C@H]1C(=O)N2C(C(=O)O)=C(SCCNC=N)C[C@H]12 [IMIPENEM ANHYDROUS],0.25 µg/mL
3,NCC[C@H](O)C(=O)N[C@@H]1C[C@H](N)[C@@H](O[C@H]2O[C@H](CN)[C@@H](O)[C@H](O)[C@H]2O)[C@H](O)[C@H]1O[C@H]1O[C@H](CO)[C@@H](O)[C@H](N)[C@H]1O [AMIKACIN],16 µg/mL
4,CC1(C)S[C@@H]2[C@H](NC(=O)[C@H](N)c3ccccc3)C(=O)N2[C@H]1C(=O)O [AMPICILLIN],> 1020 µg/mL
5,CO/N=C(\C(=O)N[C@@H]1C(=O)N2C(C(=O)O)=C(CSc3nc(=O)c(O)nn3C)CS[C@H]12)c1csc(N)n1 [CEFTRIAXONE],> 1020 µg/mL

# Tested on: Escherichia coli
# Experiment: Antimicrobial activity against Escherichia coli isolate 36 harboring bla CTX-M-3a gene by broth microdilution method
# Type: functional
# Settings: not given
row,SMILES,MIC
1,CO/N=C(\C(=O)N[C@@H]1C(=O)N2C(C(=O)[O-])=C(C[N+]3(C)CCCC3)CS[C@H]12)c1csc(N)n1,256 µg/mL
2,CC(C)(O/N=C(\C(=O)N[C@@H]1C(=O)N2C(C(=O)[O-])=C(C[n+]3ccccc3)CS[C@H]12)c1csc(N)n1)C(=O)O [CEFTAZIDIME],4 µg/mL
3,C[C@@H](O)[C@H]1C(=O)N2C(C(=O)O)=C(SCCNC=N)C[C@H]12 [IMIPENEM ANHYDROUS],0.25 µg/mL
4,NCC[C@H](O)C(=O)N[C@@H]1C[C@H](N)[C@@H](O[C@H]2O[C@H](CN)[C@@H](O)[C@H](O)[C@H]2O)[C@H](O)[C@H]1O[C@H]1O[C@H](CO)[C@@H](O)[C@H](N)[C@H]1O [AMIKACIN],2 µg/mL
5,CC1(C)S[C@@H]2[C@H](NC(=O)[C@H](N)c3ccccc3)C(=O)N2[C@H]1C(=O)O [AMPICILLIN],> 1020 µg/mL
6,CO/N=C(\C(=O)N[C@@H]1C(=O)N2C(C(=O)O)=C(CSc3nc(=O)c(O)nn3C)CS[C@H]12)c1csc(N)n1 [CEFTRIAXONE],> 1020 µg/mL

# Tested on: Escherichia coli
# Experiment: Antimicrobial activity against Escherichia coli isolate 36 harboring bla CTX-M-3a gene by broth microdilution method in presence of clavulanic acid
# Settings: not given
row,SMILES,MIC
1,CC(C)(O/N=C(\C(=O)N[C@@H]1C(=O)N2C(C(=O)[O-])=C(C[n+]3ccccc3)CS[C@H]12)c1csc(N)n1)C(=O)O [CEFTAZIDIME],0.25 µg/mL

# Tested on: Escherichia coli
# Experiment: Antimicrobial activity against Escherichia coli isolate 49 harboring bla CTX-M-3a gene by broth microdilution method in presence of clavulanic acid
# Settings: not given
row,SMILES,MIC
1,CC(C)(O/N=C(\C(=O)N[C@@H]1C(=O)N2C(C(=O)[O-])=C(C[n+]3ccccc3)CS[C@H]12)c1csc(N)n1)C(=O)O [CEFTAZIDIME],0.06 µg/mL

# Tested on: Escherichia coli
# Experiment: Antimicrobial activity against Escherichia coli isolate 16 harboring bla CTX-M-3a gene by broth microdilution method
# Type: functional
# Settings: not given
row,SMILES,MIC
1,CO/N=C(\C(=O)N[C@@H]1C(=O)N2C(C(=O)[O-])=C(C[N+]3(C)CCCC3)CS[C@H]12)c1csc(N)n1,128 µg/mL
2,CC(C)(O/N=C(\C(=O)N[C@@H]1C(=O)N2C(C(=O)[O-])=C(C[n+]3ccccc3)CS[C@H]12)c1csc(N)n1)C(=O)O [CEFTAZIDIME],1 µg/mL
3,NCC[C@H](O)C(=O)N[C@@H]1C[C@H](N)[C@@H](O[C@H]2O[C@H](CN)[C@@H](O)[C@H](O)[C@H]2O)[C@H](O)[C@H]1O[C@H]1O[C@H](CO)[C@@H](O)[C@H](N)[C@H]1O [AMIKACIN],64 µg/mL
4,CC1(C)S[C@@H]2[C@H](NC(=O)[C@H](N)c3ccccc3)C(=O)N2[C@H]1C(=O)O [AMPICILLIN],> 1020 µg/mL
5,CO/N=C(\C(=O)N[C@@H]1C(=O)N2C(C(=O)O)=C(CSc3nc(=O)c(O)nn3C)CS[C@H]12)c1csc(N)n1 [CEFTRIAXONE],> 1020 µg/mL

# Tested on: Escherichia coli
# Experiment: Antimicrobial activity against Escherichia coli isolate 100 harboring bla CTX-M-3a gene by broth microdilution method in presence of clavulanic acid
# Settings: not given
row,SMILES,MIC
1,CC(C)(O/N=C(\C(=O)N[C@@H]1C(=O)N2C(C(=O)[O-])=C(C[n+]3ccccc3)CS[C@H]12)c1csc(N)n1)C(=O)O [CEFTAZIDIME],0.5 µg/mL

# Tested on: Escherichia coli
# Experiment: Antimicrobial activity against Escherichia coli isolate 32 harboring bla CTX-M-3a gene by broth microdilution method in presence of clavulanic acid
# Settings: not given
row,SMILES,MIC
1,CC(C)(O/N=C(\C(=O)N[C@@H]1C(=O)N2C(C(=O)[O-])=C(C[n+]3ccccc3)CS[C@H]12)c1csc(N)n1)C(=O)O [CEFTAZIDIME],0.5 µg/mL

# Tested on: Escherichia coli
# Experiment: Antimicrobial activity against Escherichia coli isolate 49 harboring bla CTX-M-3a gene by broth microdilution method
# Type: functional
# Settings: not given
row,SMILES,MIC
1,CO/N=C(\C(=O)N[C@@H]1C(=O)N2C(C(=O)[O-])=C(C[N+]3(C)CCCC3)CS[C@H]12)c1csc(N)n1,8 µg/mL
2,CC(C)(O/N=C(\C(=O)N[C@@H]1C(=O)N2C(C(=O)[O-])=C(C[n+]3ccccc3)CS[C@H]12)c1csc(N)n1)C(=O)O [CEFTAZIDIME],0.25 µg/mL
3,O=C(O)c1cn(C2CC2)c2cc(N3CCNCC3)c(F)cc2c1=O [CIPROFLOXACIN],≤ 0.03 µg/mL
4,C[C@@H](O)[C@H]1C(=O)N2C(C(=O)O)=C(SCCNC=N)C[C@H]12 [IMIPENEM ANHYDROUS],0.06 µg/mL
5,NCC[C@H](O)C(=O)N[C@@H]1C[C@H](N)[C@@H](O[C@H]2O[C@H](CN)[C@@H](O)[C@H](O)[C@H]2O)[C@H](O)[C@H]1O[C@H]1O[C@H](CO)[C@@H](O)[C@H](N)[C@H]1O [AMIKACIN],≤ 0.03 µg/mL
6,CC1(C)S[C@@H]2[C@H](NC(=O)[C@H](N)c3ccccc3)C(=O)N2[C@H]1C(=O)O [AMPICILLIN],> 1020 µg/mL
7,CO/N=C(\C(=O)N[C@@H]1C(=O)N2C(C(=O)O)=C(CSc3nc(=O)c(O)nn3C)CS[C@H]12)c1csc(N)n1 [CEFTRIAXONE],128 µg/mL

# Tested on: Escherichia coli
# Experiment: Antimicrobial activity against Escherichia coli isolate 86 harboring bla CTX-M-3a gene by broth microdilution method in presence of clavulanic acid
# Settings: not given
row,SMILES,MIC
1,CC(C)(O/N=C(\C(=O)N[C@@H]1C(=O)N2C(C(=O)[O-])=C(C[n+]3ccccc3)CS[C@H]12)c1csc(N)n1)C(=O)O [CEFTAZIDIME],0.5 µg/mL

# Tested on: Escherichia coli
# Experiment: microbe, parasite or virus in culture
# Settings: ATCC 25922
row,SMILES,MIC
1,CC(C)(O/N=C(\C(=O)N[C@@H]1C(=O)N2C(C(=O)[O-])=C(C[n+]3ccccc3)CS[C@H]12)c1csc(N)n1)C(=O)O [CEFTAZIDIME],0.25 µg/mL
2,O=C(O)c1cn(C2CC2)c2cc(N3CCNCC3)c(F)cc2c1=O [CIPROFLOXACIN],≤ 0.03 µg/mL
3,NCC[C@H](O)C(=O)N[C@@H]1C[C@H](N)[C@@H](O[C@H]2O[C@H](CN)[C@@H](O)[C@H](O)[C@H]2O)[C@H](O)[C@H]1O[C@H]1O[C@H](CO)[C@@H](O)[C@H](N)[C@H]1O [AMIKACIN],1 µg/mL
4,CC1(C)S[C@@H]2[C@H](NC(=O)[C@H](N)c3ccccc3)C(=O)N2[C@H]1C(=O)O [AMPICILLIN],4 µg/mL
5,CO/N=C(\C(=O)N[C@@H]1C(=O)N2C(C(=O)O)=C(CSc3nc(=O)c(O)nn3C)CS[C@H]12)c1csc(N)n1 [CEFTRIAXONE],0.06 µg/mL

# Tested on: Escherichia coli
# Experiment: Antimicrobial activity against Escherichia coli isolate Z1 harboring bla CTX-M-3a gene by broth microdilution method in presence of clavulanic acid
# Settings: not given
row,SMILES,MIC
1,CC(C)(O/N=C(\C(=O)N[C@@H]1C(=O)N2C(C(=O)[O-])=C(C[n+]3ccccc3)CS[C@H]12)c1csc(N)n1)C(=O)O [CEFTAZIDIME],1 µg/mL

# Tested on: Escherichia coli
# Experiment: Antimicrobial activity against Escherichia coli isolate 16 harboring bla CTX-M-3a gene by broth microdilution method in presence of clavulanic acid
# Settings: not given
row,SMILES,MIC
1,CC(C)(O/N=C(\C(=O)N[C@@H]1C(=O)N2C(C(=O)[O-])=C(C[n+]3ccccc3)CS[C@H]12)c1csc(N)n1)C(=O)O [CEFTAZIDIME],0.125 µg/mL

# Tested on: Escherichia coli
# Experiment: Antimicrobial activity against Escherichia coli isolate 100 harboring bla CTX-M-3a gene by broth microdilution method
# Type: functional
# Settings: not given
row,SMILES,MIC
1,CO/N=C(\C(=O)N[C@@H]1C(=O)N2C(C(=O)[O-])=C(C[N+]3(C)CCCC3)CS[C@H]12)c1csc(N)n1,32 µg/mL
2,CC(C)(O/N=C(\C(=O)N[C@@H]1C(=O)N2C(C(=O)[O-])=C(C[n+]3ccccc3)CS[C@H]12)c1csc(N)n1)C(=O)O [CEFTAZIDIME],4 µg/mL
3,C[C@@H](O)[C@H]1C(=O)N2C(C(=O)O)=C(SCCNC=N)C[C@H]12 [IMIPENEM ANHYDROUS],0.5 µg/mL
4,NCC[C@H](O)C(=O)N[C@@H]1C[C@H](N)[C@@H](O[C@H]2O[C@H](CN)[C@@H](O)[C@H](O)[C@H]2O)[C@H](O)[C@H]1O[C@H]1O[C@H](CO)[C@@H](O)[C@H](N)[C@H]1O [AMIKACIN],> 128 µg/mL
5,CC1(C)S[C@@H]2[C@H](NC(=O)[C@H](N)c3ccccc3)C(=O)N2[C@H]1C(=O)O [AMPICILLIN],> 1020 µg/mL
6,CO/N=C(\C(=O)N[C@@H]1C(=O)N2C(C(=O)O)=C(CSc3nc(=O)c(O)nn3C)CS[C@H]12)c1csc(N)n1 [CEFTRIAXONE],> 1020 µg/mL

# Tested on: Escherichia coli
# Experiment: Antimicrobial activity against Escherichia coli isolate 86 harboring bla CTX-M-3a gene by broth microdilution method
# Type: functional
# Settings: not given
row,SMILES,MIC
1,CO/N=C(\C(=O)N[C@@H]1C(=O)N2C(C(=O)[O-])=C(C[N+]3(C)CCCC3)CS[C@H]12)c1csc(N)n1,512 µg/mL
2,CC(C)(O/N=C(\C(=O)N[C@@H]1C(=O)N2C(C(=O)[O-])=C(C[n+]3ccccc3)CS[C@H]12)c1csc(N)n1)C(=O)O [CEFTAZIDIME],8 µg/mL
3,NCC[C@H](O)C(=O)N[C@@H]1C[C@H](N)[C@@H](O[C@H]2O[C@H](CN)[C@@H](O)[C@H](O)[C@H]2O)[C@H](O)[C@H]1O[C@H]1O[C@H](CO)[C@@H](O)[C@H](N)[C@H]1O [AMIKACIN],4 µg/mL
4,CC1(C)S[C@@H]2[C@H](NC(=O)[C@H](N)c3ccccc3)C(=O)N2[C@H]1C(=O)O [AMPICILLIN],> 1020 µg/mL
5,CO/N=C(\C(=O)N[C@@H]1C(=O)N2C(C(=O)O)=C(CSc3nc(=O)c(O)nn3C)CS[C@H]12)c1csc(N)n1 [CEFTRIAXONE],> 1020 µg/mL

# Tested on: Escherichia coli
# Experiment: Antimicrobial activity against Escherichia coli ATCC 25922 harboring bla CTX-M-3a gene by broth microdilution method in presence of clavulanic acid
# Type: functional
# Settings: not given
row,SMILES,MIC
1,CC(C)(O/N=C(\C(=O)N[C@@H]1C(=O)N2C(C(=O)[O-])=C(C[n+]3ccccc3)CS[C@H]12)c1csc(N)n1)C(=O)O [CEFTAZIDIME],0.125 µg/mL

# Tested on: Escherichia coli
# Experiment: Antimicrobial activity against Escherichia coli isolate Z1 harboring bla CTX-M-3a gene by broth microdilution method
# Type: functional
# Settings: not given
row,SMILES,MIC
1,CO/N=C(\C(=O)N[C@@H]1C(=O)N2C(C(=O)[O-])=C(C[N+]3(C)CCCC3)CS[C@H]12)c1csc(N)n1,64 µg/mL
2,CC(C)(O/N=C(\C(=O)N[C@@H]1C(=O)N2C(C(=O)[O-])=C(C[n+]3ccccc3)CS[C@H]12)c1csc(N)n1)C(=O)O [CEFTAZIDIME],16 µg/mL
3,O=C(O)c1cn(C2CC2)c2cc(N3CCNCC3)c(F)cc2c1=O [CIPROFLOXACIN],> 128 µg/mL
4,C[C@@H](O)[C@H]1C(=O)N2C(C(=O)O)=C(SCCNC=N)C[C@H]12 [IMIPENEM ANHYDROUS],1 µg/mL
5,NCC[C@H](O)C(=O)N[C@@H]1C[C@H](N)[C@@H](O[C@H]2O[C@H](CN)[C@@H](O)[C@H](O)[C@H]2O)[C@H](O)[C@H]1O[C@H]1O[C@H](CO)[C@@H](O)[C@H](N)[C@H]1O [AMIKACIN],> 128 µg/mL
6,CC1(C)S[C@@H]2[C@H](NC(=O)[C@H](N)c3ccccc3)C(=O)N2[C@H]1C(=O)O [AMPICILLIN],> 1020 µg/mL
7,CO/N=C(\C(=O)N[C@@H]1C(=O)N2C(C(=O)O)=C(CSc3nc(=O)c(O)nn3C)CS[C@H]12)c1csc(N)n1 [CEFTRIAXONE],> 1020 µg/mL
